Results taken from patent publication US20250108038A1 (priority 2023, published 2025).

How the values were obtained:
[1] = system: human red blood cells; assay: Hemolysis study in human blood; assay type: cell-based; details: 60 min, 37° C.; for % RBC lysis (hemolytic potential): test articles 25, 50, 100 μM, amphotericin B 1, 10, 30, 100 μM
Description: (§1) FIG. 4A. […] Compound I-19 in human blood. Red blood cells were isolated from whole blood and resuspended in PBS. […] (final concentrations 25, 50, and 100 μM) and the mixtures were incubated at 37° C. for 60 min. After the incubation, the samples were centrifuged and the absorbance of 100 μL of supernatant was read at 410 nm. % RBC lysis is expressed relative to 100% lysis control. Values represent mean+SEM of n=3 separate experiments.
FIG. 4B. Hemolytic Potential of Compound I-4 in human blood. Red blood cells were isolated from whole blood and resuspended in PBS. 190 μL of diluted RBC suspension and 10 μL of Compound I-4 solutions were mixed at 0 min. (final concentrations 25, 50, and 100 μM) and the mixtures were incubated at 37° C. for 60 min. After the incubation, the samples were centrifuged and the absorbance of 100 μL of supernatant was read at 410 nm. % RBC lysis is expressed relative to 100% lysis control. Values represent mean+SEM of n=3 separate experiments.
(§2) FIG. 4C. Hemolytic Potential of Amphotericin B in human blood (positive assay control). Red blood cells were isolated from whole blood and resuspended in PBS. 190 μL of diluted RBC suspension and 10 μl of amphotericin B solutions were mixed at 0 min. (final concentrations 1, 10, 30, and 100 μM) and the mixtures were incubated at 37° C. for 60 min. After the incubation, the samples were centrifuged and the absorbance of 100 μL of supernatant was read at 410 nm. % RBC lysis is expressed relative to 100% lysis control. Values represent mean+SEM of n=3 separate experiments.
(§3) To a clear 96-well V-bottom polystyrene plate, the test articles (10 μL) and the diluted RBCs (190 μL) from human or rat blood were mixed for final concentrations of 25, 50, and 100 μM. The reaction mixture was incubated at 37° C. for 60 min. Following the exposure period, the plates were centrifuged. After centrifugation, 70 μL of supernatant (without disturbing the pellet) was transferred to a clean and clear polystyrene flat bottomed 96-well plate and the absorbance of the sample at a single wavelength was measured using a BioTech Synergy H1 Plate Reader at a wavelength of 410 nm. The positive control for this assay was amphotericin B test at concentrations of 1, 10, 30, and 100 μM.

[2] = system: Wistar rats; assay type: in vivo, Wistar rat; details: for % hit rate: nicotine 0.05-0.2 mg/kg sc, Compound I-4 0.1-3.0 mg/kg ip, Compound I-19 0.03-1.0 mg/kg ip; for % correct / Magazine Head Entries / Omissions / number of trials completed / perseverative responses / premature responses / response latencies (correct, incorrect) / reward latencies / timeout responses: same doses
Description: Animals were trained in eight automated 5C-SRTT operant chambers (Med Associates, St. Albans, VT, USA), controlled by MedPC software (Med Associates). Briefly, each operant chamber was equipped with 5 apertures containing a photocell beam to detect nose pokes and a lamp (2.8 W) that could be illuminated randomly at varying durations. Food pellets (45 mg chow pellet, BioServ, Frenchtown, NJ, USA) were delivered automatically to a magazine, located on the opposite wall to the nose pokes, that was also equipped with a light that turned on to indicate that a pellet had been dispensed. The house-light remained on for the entire session unless an error or omission occurred. Training sessions began with the delivery of a food reward and retrieval triggered the first trial. […] Training began with the stimulus duration set at 10 sec, a limited hold period of 5 sec and an ITI of 5 sec. […] Sessions ended when 40 minutes had lapsed or 100 trials had been completed.
Upon meeting the performance criteria, animals were assessed in the vSD version of the task where the following stimulus durations were presented in a pseudorandom manner: 0.3, 0.6 and 0.9 sec. Later, subjects were assessed in the vITI version where 2.5, 5.0 and 10.0 sec ITIs were employed in a pseudorandom manner. Performance parameters measured were: % hit ((# correct/(# correct+# incorrect including omissions))×100); % correct ((# correct/(# correct+# incorrect excluding omissions))×100); premature responses (# of nose-pokes into any aperture after trial initiation but before onset of the stimulus light); timeout responses (# of nose pokes into any aperture during a timeout period), perseverative responses (# of nose pokes occurring after the correct response had been made but before reward collection); # of food magazine head entries, omissions and total trials completed. The latency to correct response (time taken from the onset of the nose poke light stimulus to making the correct nose poke response), latency to incorrect response (time taken from onset of nose poke light stimulus to making the incorrect nose poke response), and latency to reward (i.e., the magazine latency, time taken from making a correct nose poke response to retrieving the reward from the magazine) was also recorded.
Drug doses and vehicle were administered in a pseudorandom fashion. Drug or vehicle sessions were performed 1-2 times per week with maintenance training (behavioral testing without drug or vehicle injections) interspersed.
All data were collated and entered into Microsoft Excel spreadsheets. The data were subsequently imported into StatView 5.0 for statistical analyses. One and two factor analysis of variance (ANOVA) tests were used with repeated measures when indicated, followed by Fisher LSD or Student Newman Keuls as post-hoc tests. All results were expressed as the mean (±S.E.M.). Differences between means from experimental groups were considered significant at the p<0.05 level. The statistical F values and degrees of freedom associated with the two factor ANOVA analyses are provided in the text of this report. Please refer to the statistical reports in the appendices for the values associated with one factor ANOVAs for the overall means and overall total values.

[3] = system: rat red blood cells; assay: Hemolysis study in rat blood; assay type: cell-based; details: 60 min, 37° C.; for % RBC lysis (hemolytic potential): test articles 25, 50, 100 μM, amphotericin B 1, 10, 30, 100 μM
Description: as §1, with “6A.” for “4A.”, “rat” for “human”
as §1, with “6B.” for “4A.”, “rat” for “human”, “μl” for “μL”
as §2, with “6C.” for “4C.”, “rat” for “human”, “μL” for “μl”
as §3

Row | Structure (SMILES) | EC50 (% RBC lysis) [1] | % RBC lysis (hemolytic potential) [1] | % hit rate [2] | % correct [2] | Magazine Head Entries [2] | Omissions [2] | number of trials completed [2] | perseverative responses [2] | premature responses [2] | response latencies (correct, incorrect) [2] | reward latencies [2] | timeout responses [2] | EC50 (% RBC lysis) [3] | % RBC lysis (hemolytic potential) [3]
1 | COCCOC1(c2ccc(Cl)cc2)c2ccccc2C2=NCCN21 (stereo not shown) [Compound I-4] | outside the concentration range tested | no detectable hemolysis | decrease in the % hit rate | no statistically significant dose-related effects | decreases in the number of premature responses, timeout responses, and magazine head entries | increase in the number of omissions | decreases in the number of trials completed | no statistically significant effects on perseverative responses | the higher 3 doses of Compound I-4 were associated with a decrease | increases in the response latencies | some increases in the reward latencies, but they were not statistically significant | decreases in the number of premature responses, timeout responses, and magazine head entries | outside the concentration range tested | no detectable hemolysis
2 | Clc1ccc(C2(OCC3OCCO3)c3ccccc3C3=NCCN32)cc1 (stereo not shown) [Compound I-19] | outside the concentration range tested | no detectable hemolysis | dose-dependent decrease in the % hit rate | no statistically significant dose-related effects | decreased in a dose-dependent manner | increase in the number of omissions | decreases in the number of trials completed | very modest reduction in the number of perseverative responses | decrease in the number of premature responses | very modest increases in the response latencies | some increases in the reward latencies, but they were not statistically significant | decrease in the number of premature responses, timeout responses, magazine head entries, and perseverative responses | outside the concentration range tested | no detectable hemolysis
